Laboratory results from US20250223331A1, “GLP-1/GIP DUAL-TARGETED POLYPEPTIDE AND FUSION PROTEIN AND APPLICATIONS THEREOF” (SUNSHINE LAKE PHARMA CO., LTD., priority 2021, published 2025).
Marks after values point to notes of the source that are not given here.

Columns and labels:
Format in all cases: in vivo
normal C57BL/6 mice [1] = test: glucose tolerance in normal C57BL/6 mice (Example 7); details: 3 nmol/kg s.c. single dose, 72 h after dose
Protocol: (§1) Experimental methods: Normal C57BL/6 mice were randomly divided into 6 groups (Vehicle group, Dulaglutide group, HEC-G123 group, HEC-G128 group, HEC-G131 group, HEC-G132 group) according to blood glucose and body weight, with 8 mice in each group. For the groups of Dulaglutide, HEC-G123, HEC-G128, HEC-G131 and HEC-G132, the corresponding drug was injected subcutaneously into the mice at a dose of 3 nmol/kg, and for the control group, the corresponding vehicle was injected subcutaneously.
(§2) After 60 h of single administration, the mice were fasted for 12 h and drank water freely. Blood was collected from the tail vein to measure the basal blood glucose value of each group, then 2 g/kg of glucose solution was injected intraperitoneally, and blood glucose was measured at 15, 30, 60, and 0 min after glucose administration. According to the blood glucose values measured at different time points, the blood glucose concentration-time curve was plotted, and the AUC0˜90min of each dose group was calculated, and the experimental results are shown in Table 6 and FIGS. 1-2.

normal C57BL/6 mice [2] = test: glucose tolerance in normal C57BL/6 mice (Example 8); details: 3 nmol/kg s.c. single dose, 72 h after dose
Protocol: as §1, with “HEC-G113” for “HEC-G123”, “HEC-G122” for “HEC-G128”, “HEC-G126” for “HEC-G131”, “HEC-G127” for “HEC-G132”, “Dulaglutide (Dulaglutide purchased from Eli Lilly, lot number was D256504), HEC-G113, HEC-G122, HEC-G126” for “Dulaglutide, HEC-G123, HEC-G128, HEC-G131”, “HEC-G127,” for “HEC-G132,”
as §2, with “60, 90” for “60,”, “Table 7” for “Table 6”, “FIGS. 3-4” for “FIGS. 1-2.”

normal C57BL/6 mice [3] = test: glucose tolerance in normal C57BL/6 mice (Example 7); details: 3 nmol/kg s.c. single dose, 72 h after dose, 2 g/kg glucose i.p.
[4] = blood glucose concentration-time curve

Substance: Dulaglutide [reference compound]
- Blood glucose value 0 min (normal C57BL/6 mice [1]; 2 g/kg glucose i.p., 0 min): 4.4 ± 0.8 mM
- Blood glucose value 15 min (normal C57BL/6 mice [1]; 2 g/kg glucose i.p., 15 min): 15.7 ± 2.2 mM
- Blood glucose value 30 min (normal C57BL/6 mice [1]; 2 g/kg glucose i.p., 30 min): 12.7 ± 2.4 mM
- Blood glucose value 60 min (normal C57BL/6 mice [1]; 2 g/kg glucose i.p., 60 min): 8.1 ± 1.0 mM
- AUC0-90 min (normal C57BL/6 mice [1]; [4]): 899.0 ± 105.4 ^a
- Blood glucose value 0 min (normal C57BL/6 mice [2]; 2 g/kg glucose i.p., 0 min): 4.3 ± 0.4 mM
- Blood glucose value 15 min (normal C57BL/6 mice [2]; 2 g/kg glucose i.p., 15 min): 15.3 ± 3.1 mM
- Blood glucose value 30 min (normal C57BL/6 mice [2]; 2 g/kg glucose i.p., 30 min): 15.1 ± 2.7 mM
- Blood glucose value 60 min (normal C57BL/6 mice [2]; 2 g/kg glucose i.p., 60 min): 9.1 ± 1.3 mM
- Blood glucose value 90 min (normal C57BL/6 mice [2]; 2 g/kg glucose i.p., 90 min): 6.8 ± 0.9 mM
- AUC0-90 min (normal C57BL/6 mice [2]; [4]): 976.2 ± 135.6 ^a
- Blood glucose value 90 min (normal C57BL/6 mice [3]): 6.8 ± 0.6 mM
